Measurements reported in publication PMC10771525 (Communications Biology, 2024).
Where no end group is shown, it is not given here.

Tests used:
CHRM2 = CHRM2 (Homo sapiens, UniProt P08172); details: reference agonist, CHRM2, CHO-K1, Arrestin
CHRM4 = CHRM4 (Homo sapiens, UniProt P08173); assay: GPCR panel (control), Arrestin, CHO-K1; format: cell-based; details: reference agonist
CHRM5 = CHRM5 (Homo sapiens, UniProt P08912); assay: GPCR panel (control), Arrestin, CHO-K1; format: cell-based; details: reference agonist
CNR1 = CNR1 (Homo sapiens, UniProt P21554); details: reference agonist, CNR1, CHO-K1, Arrestin
CNR2 = CNR2 (Homo sapiens, UniProt P34972); details: reference agonist, CNR2, CHO-K1, Arrestin
DRD4 = DRD4 (Homo sapiens, UniProt P21917); details: reference agonist, DRD4, CHO-K1, Arrestin
DRD2S = DRD2S (Homo sapiens, UniProt P14416); details: reference agonist, CHO-K1, Arrestin
DRD2L = DRD2L (Homo sapiens, UniProt P14416); details: reference agonist, CHO-K1, Arrestin
GPR120 = GPR120 (Homo sapiens, UniProt Q5NUL3); assay: GPCR panel (control), Arrestin, CHO-K1; format: cell-based; details: reference agonist
HRH2 = HRH2 (Homo sapiens, UniProt P25021); details: reference agonist, HRH2, CHO-K1, Arrestin
OXTR = target: T1, OXTR (Homo sapiens, UniProt P30559); assay: GPCR panel (control), Arrestin, CHO-K1; format: cell-based; details: reference agonist
T1 construct: expressed in transfected cells; host or cells: CHO-K1

ADRA1B = ADRA1B (Homo sapiens, UniProt P35368); assay: GPCR panel (control), Arrestin, CHO-K1; format: cell-based; details: reference agonist
PTGER3 = PTGER3 (Homo sapiens, UniProt P43115); assay: GPCR panel (control), Arrestin, CHO-K1; format: cell-based; details: reference agonist
PTGER2 = PTGER2 (Homo sapiens, UniProt P43116); assay: GPCR panel (control), Arrestin, CHO-K1; format: cell-based; details: reference agonist
PTGER4 = PTGER4 (Homo sapiens, UniProt P35408); assay: GPCR panel (control), Arrestin, HEK-293; format: cell-based; details: reference agonist, PTGER4, HEK-293, Arrestin
TACR3 = target: T2, TACR3 (Homo sapiens, UniProt P29371); assay: GPCR panel (control), Arrestin, CHO-K1; format: cell-based; details: reference agonist
T2 construct: expressed in transfected cells; host or cells: CHO-K1

UTR2 = target: T3, UTR2 (Homo sapiens, UniProt Q9UKP6); assay: GPCR panel (control), Arrestin, CHO-K1; format: cell-based; details: reference agonist
T3 construct: expressed in transfected cells; host or cells: CHO-K1

F2RL3 = target: T4, F2RL3 (Homo sapiens, UniProt Q96RI0); assay: GPCR panel (control), Arrestin, CHO-K1; format: cell-based; details: reference agonist
T4 construct: expressed in transfected cells; host or cells: CHO-K1

CALCR + RAMP3 = CALCR + RAMP3 (Homo sapiens, UniProt O60896+P30988); details: reference agonist, CALCR + RAMP3, CHO-K1, Arrestin
CALCR = CALCR (Homo sapiens, UniProt P30988); details: reference agonist, U2OS, Arrestin
CALCR + RAMP2 = CALCR + RAMP2 (Homo sapiens, UniProt O60895+P30988); details: reference agonist, CALCR + RAMP2, CHO-K1, Arrestin
EDNRA = EDNRA (Homo sapiens, UniProt P25101); details: reference agonist, CHO-K1, Arrestin
EDNRB = target: T5, EDNRB (Homo sapiens, UniProt P24530); assay: GPCR panel (control), Arrestin, CHO-K1; format: cell-based; details: reference agonist
T5 construct: expressed in transfected cells; host or cells: CHO-K1

GLP1R = GLP1R (Homo sapiens, UniProt P43220); details: reference agonist, CHO-K1, Arrestin
HSR1A = HSR1A (Homo sapiens, UniProt Q92847); details: reference agonist, U2OS, Arrestin
HCRTR1 = target: T6, HCRTR1 (Homo sapiens, UniProt O43613); assay: GPCR panel (control), Arrestin, CHO-K1; format: cell-based; details: reference agonist
T6 construct: expressed in transfected cells; host or cells: CHO-K1

ADCYAP1R1 = ADCYAP1R1 (Homo sapiens, UniProt P41586); details: reference agonist, ADCYAP1R1, CHO-K1, Arrestin
PTHR1 = target: T7, PTHR1 (Homo sapiens, UniProt Q03431); assay: GPCR panel (control), Arrestin, CHO-K1; format: cell-based; details: reference agonist
T7 construct: expressed in transfected cells; host or cells: CHO-K1

PPYR1 (NPY4) = target: T8, PPYR1 (NPY4) (Homo sapiens, UniProt P50391); assay: GPCR panel (control), Arrestin, CHO-K1; format: cell-based; details: reference agonist
T8 construct: expressed in transfected cells; host or cells: CHO-K1

BDKRB2 = target: T9, BDKRB2 (Homo sapiens, UniProt P30411); assay: GPCR panel (control), Arrestin, CHO-K1; format: cell-based; details: reference agonist
T9 construct: expressed in transfected cells; host or cells: CHO-K1

RXFP3 = target: T10, RXFP3 (Homo sapiens, UniProt Q9NSD7); assay: GPCR panel (control), Arrestin, U2OS; format: cell-based; details: reference agonist
T10 construct: expressed in transfected cells; host or cells: U2OS

F2RL1 = target: T11, F2RL1 (Homo sapiens, UniProt P55085); assay: GPCR panel (control), Arrestin, U2OS; format: cell-based; details: reference agonist
T11 construct: expressed in transfected cells; host or cells: U2OS

CRHR2 = target: T12, CRHR2 (Homo sapiens, UniProt Q13324); assay: GPCR panel (control), Arrestin, CHO-K1; format: cell-based; details: reference agonist
T12 construct: expressed in transfected cells; host or cells: CHO-K1

SCTR = target: T13, SCTR (Homo sapiens, UniProt P47872); assay: GPCR panel (control), Arrestin, CHO-K1; format: cell-based; details: reference agonist
T13 construct: expressed in transfected cells; host or cells: CHO-K1

SSTR2 = SSTR2 (Homo sapiens, UniProt P30874); details: reference agonist, SSTR2, CHO-K1, Arrestin
SSTR5 = SSTR5 (Homo sapiens, UniProt P35346); details: reference agonist, SSTR5, CHO-K1, Arrestin
F2R = target: T14, F2R (Homo sapiens, UniProt P25116); assay: GPCR panel (control), Arrestin, CHO-K1; format: cell-based; details: reference agonist
T14 construct: expressed in transfected cells; host or cells: CHO-K1

PTHR2 = target: T15, PTHR2 (Homo sapiens, UniProt P49190); assay: GPCR panel (control), Arrestin, CHO-K1; format: cell-based; details: reference agonist
T15 construct: expressed in transfected cells; host or cells: CHO-K1

FPR1 = target: T16, FPR1 (Homo sapiens, UniProt P21462); assay: GPCR panel (control), Arrestin, CHO-K1; format: cell-based; details: reference agonist
T16 construct: expressed in transfected cells; host or cells: CHO-K1

FPRL1 = target: T17, FPRL1 (Homo sapiens, UniProt P25090); assay: GPCR panel (control), Arrestin, CHO-K1; format: cell-based; details: reference agonist
T17 construct: expressed in transfected cells; host or cells: CHO-K1

OPRM1 = OPRM1 (Homo sapiens, UniProt P35372); details: reference agonist, OPRM1, U2OS, Arrestin
CCR9 = assay: GPCR panel (control), Arrestin, CHO-K1; format: cell-based, human; details: reference agonist

Chain of CALCR + RAMP2 (P30988 25-474): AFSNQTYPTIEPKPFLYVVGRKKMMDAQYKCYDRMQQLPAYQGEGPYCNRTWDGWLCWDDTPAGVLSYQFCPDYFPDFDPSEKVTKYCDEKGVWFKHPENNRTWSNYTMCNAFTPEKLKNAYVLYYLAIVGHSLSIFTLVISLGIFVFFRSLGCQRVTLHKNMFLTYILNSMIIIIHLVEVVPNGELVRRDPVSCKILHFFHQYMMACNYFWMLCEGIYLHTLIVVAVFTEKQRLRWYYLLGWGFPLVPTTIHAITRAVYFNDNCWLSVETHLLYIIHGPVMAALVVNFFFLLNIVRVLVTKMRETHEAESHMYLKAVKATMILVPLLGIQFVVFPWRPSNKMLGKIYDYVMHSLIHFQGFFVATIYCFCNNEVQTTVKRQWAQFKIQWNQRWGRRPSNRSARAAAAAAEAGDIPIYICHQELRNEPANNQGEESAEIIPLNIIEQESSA
Chain of CALCR + RAMP2 (O60895 43-175 partner): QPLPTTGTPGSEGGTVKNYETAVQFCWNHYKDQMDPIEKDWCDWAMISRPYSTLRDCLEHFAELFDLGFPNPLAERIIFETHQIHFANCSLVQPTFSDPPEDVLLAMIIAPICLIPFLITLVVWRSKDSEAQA
Chain of CALCR + RAMP3 (P30988 25-474): as the sequence (P30988 25-474) above
Chain of CALCR + RAMP3 (O60896 24-148 partner): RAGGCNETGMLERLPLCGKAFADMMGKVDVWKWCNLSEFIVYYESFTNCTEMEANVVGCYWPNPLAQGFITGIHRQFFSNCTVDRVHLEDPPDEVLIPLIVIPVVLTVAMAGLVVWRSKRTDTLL
Chain of CALCR (P30988 25-474): as the sequence (P30988 25-474) above
Chain of HSR1A (Q92847 whole entry): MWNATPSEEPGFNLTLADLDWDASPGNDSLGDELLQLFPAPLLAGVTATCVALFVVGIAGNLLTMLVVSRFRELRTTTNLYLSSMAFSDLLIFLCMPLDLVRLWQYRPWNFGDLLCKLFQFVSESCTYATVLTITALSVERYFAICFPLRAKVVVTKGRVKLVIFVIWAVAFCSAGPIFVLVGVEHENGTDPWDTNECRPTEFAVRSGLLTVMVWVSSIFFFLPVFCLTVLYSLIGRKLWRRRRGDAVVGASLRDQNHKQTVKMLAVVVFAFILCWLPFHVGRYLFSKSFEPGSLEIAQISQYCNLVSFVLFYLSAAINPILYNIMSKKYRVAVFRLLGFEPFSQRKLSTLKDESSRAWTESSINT
Chain of PTGER4 (P35408 whole entry): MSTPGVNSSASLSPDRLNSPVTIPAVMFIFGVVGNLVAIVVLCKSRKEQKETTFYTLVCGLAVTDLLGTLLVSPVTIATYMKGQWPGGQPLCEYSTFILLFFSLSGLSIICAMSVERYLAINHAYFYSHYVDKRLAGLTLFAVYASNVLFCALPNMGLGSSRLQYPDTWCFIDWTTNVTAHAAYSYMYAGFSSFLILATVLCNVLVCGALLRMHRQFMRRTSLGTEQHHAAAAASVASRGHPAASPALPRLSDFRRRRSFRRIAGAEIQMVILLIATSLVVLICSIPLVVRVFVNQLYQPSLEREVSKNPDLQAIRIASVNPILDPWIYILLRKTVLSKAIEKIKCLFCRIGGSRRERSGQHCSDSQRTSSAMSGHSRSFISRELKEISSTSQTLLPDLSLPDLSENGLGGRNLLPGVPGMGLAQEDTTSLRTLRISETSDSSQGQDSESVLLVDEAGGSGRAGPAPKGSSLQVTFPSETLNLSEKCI
Chain of CHRM4 (P08173 whole entry): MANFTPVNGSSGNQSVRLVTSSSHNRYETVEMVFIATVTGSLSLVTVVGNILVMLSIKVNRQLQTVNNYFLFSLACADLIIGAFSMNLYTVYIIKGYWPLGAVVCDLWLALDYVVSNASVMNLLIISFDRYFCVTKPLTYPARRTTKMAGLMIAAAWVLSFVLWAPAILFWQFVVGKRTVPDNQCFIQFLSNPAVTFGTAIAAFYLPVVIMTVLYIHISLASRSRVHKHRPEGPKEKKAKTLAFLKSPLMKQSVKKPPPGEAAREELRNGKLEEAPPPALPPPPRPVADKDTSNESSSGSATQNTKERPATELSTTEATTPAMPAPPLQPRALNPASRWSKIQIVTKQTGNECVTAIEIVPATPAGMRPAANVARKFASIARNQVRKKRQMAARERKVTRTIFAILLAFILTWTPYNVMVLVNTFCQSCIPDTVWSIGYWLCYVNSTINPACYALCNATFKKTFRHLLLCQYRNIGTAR
T4 sequence (Q96RI0 18-385): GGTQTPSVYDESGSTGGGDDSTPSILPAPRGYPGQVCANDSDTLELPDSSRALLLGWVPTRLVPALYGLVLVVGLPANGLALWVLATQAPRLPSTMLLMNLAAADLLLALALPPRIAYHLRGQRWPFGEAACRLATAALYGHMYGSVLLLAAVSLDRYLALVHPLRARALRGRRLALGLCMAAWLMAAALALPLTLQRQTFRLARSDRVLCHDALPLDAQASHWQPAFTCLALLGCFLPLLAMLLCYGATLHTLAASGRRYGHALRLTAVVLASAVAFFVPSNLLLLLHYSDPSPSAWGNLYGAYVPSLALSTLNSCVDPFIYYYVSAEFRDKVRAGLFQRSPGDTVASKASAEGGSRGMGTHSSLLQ
T5 sequence (P24530 27-442): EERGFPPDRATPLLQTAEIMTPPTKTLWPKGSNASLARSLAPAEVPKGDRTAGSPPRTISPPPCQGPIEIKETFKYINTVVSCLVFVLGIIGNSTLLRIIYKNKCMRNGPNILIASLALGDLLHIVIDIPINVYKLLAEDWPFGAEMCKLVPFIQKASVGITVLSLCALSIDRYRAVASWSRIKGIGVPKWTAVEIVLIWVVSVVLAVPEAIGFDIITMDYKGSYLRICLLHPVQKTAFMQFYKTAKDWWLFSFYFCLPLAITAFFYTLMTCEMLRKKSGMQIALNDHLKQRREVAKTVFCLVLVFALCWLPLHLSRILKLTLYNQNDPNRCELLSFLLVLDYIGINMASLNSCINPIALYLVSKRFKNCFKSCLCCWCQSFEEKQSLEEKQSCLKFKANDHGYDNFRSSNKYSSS
Chain of ADCYAP1R1 (P41586 21-468): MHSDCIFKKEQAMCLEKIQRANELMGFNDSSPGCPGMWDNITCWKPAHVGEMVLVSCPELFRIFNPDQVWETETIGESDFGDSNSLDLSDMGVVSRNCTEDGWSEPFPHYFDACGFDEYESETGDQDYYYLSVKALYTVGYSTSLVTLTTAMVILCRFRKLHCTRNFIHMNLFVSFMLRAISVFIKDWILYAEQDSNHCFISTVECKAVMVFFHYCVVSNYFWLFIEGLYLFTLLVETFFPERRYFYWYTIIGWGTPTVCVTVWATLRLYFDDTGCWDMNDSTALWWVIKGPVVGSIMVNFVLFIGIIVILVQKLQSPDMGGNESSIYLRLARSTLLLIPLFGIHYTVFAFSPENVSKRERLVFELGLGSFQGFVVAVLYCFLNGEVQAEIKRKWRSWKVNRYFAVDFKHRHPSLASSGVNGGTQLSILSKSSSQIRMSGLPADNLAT
T13 sequence (P47872 23-440): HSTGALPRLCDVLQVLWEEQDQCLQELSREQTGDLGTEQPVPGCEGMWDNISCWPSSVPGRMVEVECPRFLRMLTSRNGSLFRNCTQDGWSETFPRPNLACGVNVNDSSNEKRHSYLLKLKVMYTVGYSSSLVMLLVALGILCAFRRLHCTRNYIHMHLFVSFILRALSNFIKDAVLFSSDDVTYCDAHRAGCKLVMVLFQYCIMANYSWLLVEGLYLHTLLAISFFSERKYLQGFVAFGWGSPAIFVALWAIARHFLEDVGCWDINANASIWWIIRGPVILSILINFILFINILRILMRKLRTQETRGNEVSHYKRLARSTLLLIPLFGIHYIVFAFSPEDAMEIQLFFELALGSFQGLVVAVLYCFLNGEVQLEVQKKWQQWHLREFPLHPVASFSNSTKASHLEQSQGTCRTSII
Chain of CNR2 (P34972 whole entry): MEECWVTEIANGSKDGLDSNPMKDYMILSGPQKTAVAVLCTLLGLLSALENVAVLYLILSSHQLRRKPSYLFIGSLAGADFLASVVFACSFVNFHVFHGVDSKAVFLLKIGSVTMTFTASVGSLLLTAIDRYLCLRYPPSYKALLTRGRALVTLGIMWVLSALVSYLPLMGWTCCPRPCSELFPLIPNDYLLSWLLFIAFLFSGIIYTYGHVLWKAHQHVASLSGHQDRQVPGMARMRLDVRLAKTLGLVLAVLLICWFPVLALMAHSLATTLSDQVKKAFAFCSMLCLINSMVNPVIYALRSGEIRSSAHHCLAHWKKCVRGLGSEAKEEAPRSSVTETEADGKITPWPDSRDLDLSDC
T11 sequence (P55085 26-397): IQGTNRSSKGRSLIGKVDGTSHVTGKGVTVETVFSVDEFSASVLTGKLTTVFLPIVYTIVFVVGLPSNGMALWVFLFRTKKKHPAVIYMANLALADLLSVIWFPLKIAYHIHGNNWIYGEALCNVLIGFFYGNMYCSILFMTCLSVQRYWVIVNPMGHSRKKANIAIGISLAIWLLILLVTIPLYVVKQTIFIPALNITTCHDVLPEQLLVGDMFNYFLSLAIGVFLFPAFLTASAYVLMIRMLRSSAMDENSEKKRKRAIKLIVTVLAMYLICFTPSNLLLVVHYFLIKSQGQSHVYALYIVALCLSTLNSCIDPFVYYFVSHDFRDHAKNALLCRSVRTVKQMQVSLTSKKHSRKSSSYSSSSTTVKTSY
Chain of HRH2 (P25021 whole entry): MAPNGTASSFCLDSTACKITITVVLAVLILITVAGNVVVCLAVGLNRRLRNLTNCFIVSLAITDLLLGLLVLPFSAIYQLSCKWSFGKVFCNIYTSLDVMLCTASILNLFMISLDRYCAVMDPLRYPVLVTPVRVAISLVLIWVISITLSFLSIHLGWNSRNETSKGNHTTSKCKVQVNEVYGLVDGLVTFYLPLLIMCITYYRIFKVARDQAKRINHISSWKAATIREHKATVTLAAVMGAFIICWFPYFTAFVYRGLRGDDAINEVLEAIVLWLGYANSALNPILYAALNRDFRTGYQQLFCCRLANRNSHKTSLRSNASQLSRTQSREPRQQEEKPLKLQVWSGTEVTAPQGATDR

## CC(=O)OCC[N+](C)(C)C [Acetylcholine]
CHRM2
  EC80: 230 µM
CHRM4
  EC80: 200 µM
CHRM5
  EC80: 150 µM

## CCCCCCC(C)(C)c1ccc([C@@H]2C[C@H](O)CC[C@H]2CCCO)c(O)c1 [CP55940]
CNR1
  EC80: 0.17 µM
CNR2
  EC80: 0.14 µM

## NCCc1ccc(O)c(O)c1 [Dopamine]
DRD4
  EC80: 21 µM
DRD2S
  EC80: 5.4 µM
DRD2L
  EC80: 18 µM

## O=C(O)CCc1ccc(NCc2cccc(Oc3ccccc3)c2)cc1 [GW9508]
GPR120
  EC80: 570 µM

## NCCc1c[nH]cn1 [Histamine]
HRH2
  EC80: 110 µM

## CC[C@H](C)[C@@H]1NC(=O)[C@H](Cc2ccc(O)cc2)NC(=O)[C@@H](N)CSSC[C@@H](C(=O)N2CCC[C@H]2C(=O)N[C@@H](CC(C)C)C(=O)NCC(N)=O)NC(=O)[C@H](CC(N)=O)NC(=O)[C@H](CCC(N)=O)NC1=O [Oxytocin]
OXTR
  EC80: 0.28 µM

## CNC[C@H](O)c1cccc(O)c1 [Phenylephrine]
ADRA1B
  EC80: 10 µM

## CCCCC[C@H](O)/C=C/[C@H]1[C@H](O)CC(=O)[C@@H]1C/C=C\CCCC(=O)O [Prostaglandin E2]
PTGER3
  EC80: 0.98 µM
PTGER2
  EC80: 42 µM
PTGER4
  EC80: 0.14 µM

## CSCC[C@H](NC(=O)[C@H](CC(C)C)NC(=O)CNC(=O)[C@H](Cc1ccccc1)NC(=O)[C@H](Cc1ccccc1)NC(=O)[C@H](CCC(N)=O)NC(=O)[C@H](CCC(N)=O)NC(=O)[C@@H]1CCCN1C(=O)[C@H](CCCCN)NC(=O)[C@@H]1CCCN1C(=O)[C@@H](N)CCCN=C(N)N)C(N)=O [Substance P]
TACR3
  EC80: 0.92 µM

## CC(C)[C@H](NC(=O)[C@@H]1CSSC[C@H](NC(=O)[C@H](CC(=O)O)NC(=O)[C@@H]2CCCN2C(=O)[C@@H](NC(=O)[C@@H](N)CCC(=O)O)[C@@H](C)O)C(=O)N[C@@H](Cc2ccccc2)C(=O)N[C@@H](Cc2c[nH]c3ccccc23)C(=O)N[C@@H](CCCCN)C(=O)N[C@@H](Cc2ccc(O)cc2)C(=O)N1)C(=O)O [Urotensin II]
UTR2
  EC80: 0.031 µM

## AYPGKF-NH2
F2RL3
  EC80: 370 µM

## Calcitonin
CALCR + RAMP3
  EC80: 8.9 µM
CALCR
  EC80: 1.6 µM
CALCR + RAMP2
  EC80: 0.44 µM

## Endothelin-1
EDNRA
  EC80: 0.19 µM

## Endothelin-3
EDNRB
  EC80: 0.26 µM

## Exendin-4
GLP1R
  EC80: 0.24 µM

## Ghrelin
HSR1A
  EC80: 0.38 µM

## Orexin A
HCRTR1
  EC80: 0.52 µM

## PACAP-27
ADCYAP1R1
  EC80: 0.14 µM

## PTH(1-34)
PTHR1
  EC80: 0.28 µM

## Pancreatic polypeptide
PPYR1 (NPY4)
  EC80: 0.062 µM

## RPPGFSPFR [Bradykinin]
BDKRB2
  EC80: 0.035 µM

## Relaxin-3
RXFP3
  EC80: 3.1 µM

## SLIGRL-NH2
F2RL1
  EC80: 24 µM

## Sauvagine
CRHR2
  EC80: 0.46 µM

## Secretin
SCTR
  EC80: 0.074 µM

## Somatostatin 28
SSTR2
  EC80: 0.093 µM
SSTR5
  EC80: 1.3 µM

## TFLLR-NH2
F2R
  EC80: 1300 µM

## TIP-39
PTHR2
  EC80: 0.13 µM

## WKYMVm-NH2
FPR1
  EC80: 0.62 µM
FPRL1
  EC80: 0.067 µM

## met-Enkephalin
OPRM1
  EC80: 54 µM

B1: CCL25 (protein, UniProt O15444 24-150, looked up)
C-C motif chemokine 25: QGVFEDCCLAYHYPIGWAVLRRAWTYRIQEVSGSCNLPAAIFYLPKRHRKVCGNPKSREVQRAMKLLDARNKVFAKLHHNTQTFQAGPHAVKKLSSGNSKLSSSKFSNPISSSKRNVSLLISANSGL
CCR9
  EC80: 14 µM
